The record followed here is patent publication US11986471B2, “Compounds and methods of use” (Tango Therapeutics, Inc., priority 2018, dated 2024).

Assay [1] addresses T1, PRMT5 (Homo sapiens, UniProt O14744).
T1 construct: purchased Viva (custom protein)
As to the kind of experiment: PRMT5 IC50 assay in the presence of SAM as cofactor. Type of assay: biochemical. In short, it runs like this:
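Three cofactor conditions tested for PRMT5 inhibition: none, MTA and SAM, each giving an IC50. For conversion to Ki, the MTA-condition IC50 is divided by 13.5 and the SAM-condition IC50 by 1.5, and the two Ki values are expressed as a SAM/MTA ratio.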

The subject of a further assay is HAP1 MTAP-intact. As to the kind of experiment: SDMA in-cell western assay, HAP1 MTAP-intact cell line. Type of assay: cell-based. Particulars: Homo sapiens. An excerpt: Table 1a also indicates IC50 values in an MTAP-isogenic cell line pair for exemplary compounds in an SDMA in-cell western assay (columns 7-8). HAP1 MTAP-intact is a cell line in which endogenous levels of MTAP are expressed, and HAP1 MTAP-deleted is an MTAP-null cell line. […] Compounds with a ratio in the SDMA in-cell western assay of equal to or greater than 3 fold are considered MTAP-selective.

In assay [2] the target is T1, PRMT5. The assay is described as follows: PRMT5 IC50 assay with no cofactor. It counts as biochemical. In short, it runs like this: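 Values reflect IC50 (μM) on human PRMT5 under three cofactor states. Selectivity is derived as the quotient of SAM-state Ki over MTA-state Ki, with each Ki obtained from its IC50.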
The test system of a further assay is HAP1 MTAP-deleted. As to the kind of experiment: SDMA in-cell western assay, HAP1 MTAP-deleted cell line. Type of assay: cell-based. The conditions noted are these: for IC50: Homo sapiens, HAP1 MTAP-deleted cell line; for MTAP Intact/Deleted Ratio: IC50 ratio HAP1 MTAP-intact / HAP1 MTAP-deleted. An excerpt:
Table 1a also indicates IC50 values in an MTAP-isogenic cell line pair for exemplary compounds in an SDMA in-cell western assay (columns 7-8). HAP1 MTAP-intact is a cell line in which endogenous levels of MTAP are expressed, and HAP1 MTAP-deleted is an MTAP-null cell line.

Assay [3] concerns the target T1, PRMT5. The assay is described as follows: PRMT5 IC50 assay in the presence of MTA as cofactor. It counts as biochemical. The conditions noted are these: for IC50: PRMT5, MTA as cofactor. In short, it runs like this:
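Each compound is tested on PRMT5 in the presence of SAM, of MTA, and without any cofactor. Ki values are then back-calculated using fixed factors of 1.5 (SAM) and 13.5 (MTA), and the two Ki values are compared as a ratio.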

The mark [4] stands for this setting: ratio between Ki in the presence of SAM and Ki in the presence of MTA.

Bounds are passed on as bounds.

T1 sequence (O14744 whole entry): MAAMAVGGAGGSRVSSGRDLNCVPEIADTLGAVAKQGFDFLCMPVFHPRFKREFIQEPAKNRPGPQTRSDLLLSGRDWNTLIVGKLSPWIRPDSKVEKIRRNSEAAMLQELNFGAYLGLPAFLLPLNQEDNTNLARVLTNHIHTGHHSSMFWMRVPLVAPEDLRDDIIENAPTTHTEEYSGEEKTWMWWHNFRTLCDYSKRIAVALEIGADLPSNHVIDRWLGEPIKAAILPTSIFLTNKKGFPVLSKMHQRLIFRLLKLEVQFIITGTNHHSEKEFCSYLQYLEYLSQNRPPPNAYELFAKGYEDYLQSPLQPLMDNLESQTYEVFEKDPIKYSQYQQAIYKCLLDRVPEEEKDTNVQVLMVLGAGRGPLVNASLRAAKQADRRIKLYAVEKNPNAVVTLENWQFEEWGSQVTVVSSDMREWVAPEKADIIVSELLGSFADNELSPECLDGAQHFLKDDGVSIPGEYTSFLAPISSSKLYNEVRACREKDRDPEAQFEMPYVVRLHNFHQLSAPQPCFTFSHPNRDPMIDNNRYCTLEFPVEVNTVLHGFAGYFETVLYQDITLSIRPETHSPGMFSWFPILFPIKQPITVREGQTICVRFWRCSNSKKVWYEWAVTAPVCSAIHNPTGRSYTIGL
T1 sequence (Q9BQA1 whole entry partner): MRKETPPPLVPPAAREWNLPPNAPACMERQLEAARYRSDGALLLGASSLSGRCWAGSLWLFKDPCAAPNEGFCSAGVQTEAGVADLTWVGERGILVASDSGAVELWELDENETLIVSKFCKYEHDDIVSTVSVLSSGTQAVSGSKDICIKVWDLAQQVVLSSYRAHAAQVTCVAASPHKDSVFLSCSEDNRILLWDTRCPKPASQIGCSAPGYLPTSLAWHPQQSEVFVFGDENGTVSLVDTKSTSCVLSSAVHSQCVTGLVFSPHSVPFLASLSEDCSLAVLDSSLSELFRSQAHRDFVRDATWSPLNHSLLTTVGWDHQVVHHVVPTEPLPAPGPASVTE

Regarding `O=C(NC[C@H](O)CN1CCc2c(ccc(OCc3cnco3)c2Cl)C1)c1cc(NC2COC2)nc(N2CCCCC2)n1` [Compound 327, (S)—N-(3-(5-chloro-6-(oxazol-5-ylmethoxy)-3N-dihydroisoquinolin-2(1H)-yl)-2-hydroxypropyl)-6-(oxetan-3-ylamino)-2-(piperidin-1-yl)pyrimidine-4-carboxamide], the IC50 on PRMT5 [1] is 50 to 500 nM; with HAP1 MTAP-intact, at least 10000 nM; on PRMT5 [2] (read-out: No Co-factor IC50) it was 500 to 5000 nM; with HAP1 MTAP-deleted, 1000 to 10000 nM; on PRMT5 [3] it was 50 to 500 nM. The “MTAP Intact/Deleted Ratio” value in the assay on HAP1 MTAP-deleted was “B* (an IC50 ratio greater than or equal to 3 fold but lower than 10 fold between the IC50 in the HAP1 MTAP-intact cell line and the HAP1 MTAP-deleted cell line)”. On PRMT5 [3] (setting [4]), the “SAM/MTA Ratio” value is “A (a Ki ratio greater than or equal to 10 fold between the Ki in the presence of SAM and the Ki in the presence of MTA)”.
Consider `O=C(NC[C@H](O)CN1CCc2cc(OCc3cnco3)ccc2C1)c1cc(NC2CCC2)ccn1` [Compound 509, (S)-4-(cyclobutylamino)-N-(2-hydroxy-3-(6-(oxazol-5-ylmethoxy)-3,4-dihydroisoquinolin-2(1H)-yl)propyl)picolinamide], for which the IC50 at PRMT5 [1] is 500 to 5000 nM; in the assay with HAP1 MTAP-intact it was 1000 to 10000 nM; against PRMT5 [2], 500 to 5000 nM; with HAP1 MTAP-deleted, below 1000 nM; on PRMT5 [3], 50 to 500 nM. For the same molecule, in the assay with HAP1 MTAP-deleted, the “MTAP Intact/Deleted Ratio” value is “C* (an IC50 ratio of less than 3 fold between the IC50 in the HAP1 MTAP-intact cell line and the HAP1 MTAP-deleted cell line)”. Further, the “SAM/MTA Ratio” value on PRMT5 [3] (ratio between the Ki in the presence of SAM and the Ki in the presence of MTA) was “A (a Ki ratio greater than or equal to 10 fold between the Ki in the presence of SAM and the Ki in the presence of MTA)”.
As for `O=C(NC[C@H](O)CN1CCc2cc(OCc3cn[nH]c3)ccc2C1)c1ccnc(NC2CCC2)c1` [Compound 163, 2-(cyclobutylamino)-N-[(2S)-2-hydroxy-3-[6-(1H-pyrazol-4-ylmethoxy)-3,4-dihydro-1H-isoquinolin-2-yl]propyl]pyridine-4-carboxamide], the IC50 with HAP1 MTAP-intact and in the assay on HAP1 MTAP-deleted was below 1000 nM each time.
In the case of `Cc1ncoc1COc1ccc2c(c1)CCN(C[C@@H](O)CNC(=O)c1cc(NC3CCC3)nc(N3CCCCC3)n1)C2` [Compound 639, (S)-6-(cyclobutylamino)-N-(2-hydroxy-3-(6-((4-methyloxazol-5-yl)methoxy)-3,4-dihydroisoquinolin-2(1H)-yl)propyl)-2-(piperidin-1-yl)pyrimidine-4-carboxamide], the IC50 at PRMT5 [1] was 50 to 500 nM; with HAP1 MTAP-intact, below 1000 nM; on PRMT5 [2] (read-out: No Co-factor IC50) it was 500 to 5000 nM; on PRMT5 [3], 50 to 500 nM. In addition, the “SAM/MTA Ratio” value at PRMT5 [3] (setting [4]) is “A (a Ki ratio greater than or equal to 10 fold between the Ki in the presence of SAM and the Ki in the presence of MTA)”.
Take `CC(=O)N1CC(Nc2cc(C(=O)NC[C@H](O)CN3CCc4cc(OCc5ocnc5C)c(F)cc4C3)cc(N3CCCCC3)n2)C1` [Compound 638]: the IC50 on PRMT5 [1] fell in the range of 50 to 500 nM; in the assay with HAP1 MTAP-intact it was 1000 to 10000 nM; on PRMT5 [2] (read-out: No Co-factor IC50), 50 to 500 nM; on PRMT5 [3] it was 50 to 500 nM. For the same molecule, on PRMT5 [3] (setting [4]), the “SAM/MTA Ratio” value was “A (a Ki ratio greater than or equal to 10 fold between the Ki in the presence of SAM and the Ki in the presence of MTA)”.
Take `Cc1ncoc1COc1ccc2c(c1)CCN(C[C@@H](O)CNC(=O)c1ccnc(NC3CCN(C(=O)C(C)(C)C)CC3)c1)C2` [Compound 640, (S)—N-(2-hydroxy-3-(6-((4-methyloxazol-5-yl)methoxy)-3,4-dihydroisoquinolin-2(1H)-yl)propyl)-2-((1-pivaloylpiperidin-4-yl)amino)isonicotinamide]: the IC50 was in the range of 50 to 500 nM on PRMT5 [1], 1000 to 10000 nM in the assay with HAP1 MTAP-intact, 500 to 5000 nM at PRMT5 [2] (read-out: No Co-factor IC50) and 50 to 500 nM at PRMT5 [3]. Besides, the “SAM/MTA Ratio” value on PRMT5 [3] (setting [4]) is “A (a Ki ratio greater than or equal to 10 fold between the Ki in the presence of SAM and the Ki in the presence of MTA)”.
For `O=C(NC[C@H](O)CN1CCc2cc(OCc3cnco3)ccc2C1)c1ccnc(NC2CCC2)c1` [Compound 74, 2-(cyclobutylamino)-N-[(2S)-2-hydroxy-3-[6-(oxazol-5-ylmethoxy)-3,4-dihydro-1H-isoquinolin-2-yl]propyl]pyridine-4-carboxamide], the IC50 in the assay with HAP1 MTAP-intact and in the assay with HAP1 MTAP-deleted was 1000 to 10000 nM each time.
`CC(=O)N1CCC(Nc2cc(C(=O)NC[C@H](O)CN3CCc4cc(OCc5ocnc5C)ccc4C3)cc(C3CCCCC3)n2)CC1` [Compound 641, (S)-2-((1-acetylpiperidin-4-yl)amino)-6-cyclohexyl-N-(2-hydroxy-3-(6-((4-methyloxazol-5-yl)methoxy)-3,4-dihydroisoquinolin-2(1H)-yl)propyl)isonicotinamide]: the concentration for half-maximal inhibition (IC50) was 50 to 500 nM at PRMT5 [1], below 1000 nM in the assay on HAP1 MTAP-intact, 500 to 5000 nM at PRMT5 [2] (read-out: No Co-factor IC50) and below 50 nM at PRMT5 [3]. At PRMT5 [3] (setting [4]), the “SAM/MTA Ratio” value was “A (a Ki ratio greater than or equal to 10 fold between the Ki in the presence of SAM and the Ki in the presence of MTA)”.
As to `Cn1nccc1COc1ccc2c(c1)CCN(C[C@@H](O)CNC(=O)c1ccnc(NC3CCC3)c1)C2` [Compound 14, (S)-2-(cyclobutylamino)-N-(2-hydroxy-3-(6-((1-methyl-1H-pyrazol-5-yl)methoxy)-3,4-dihydroisoquinolin-2(1H)-yl)propyl)isonicotinamide], the values for the IC50 in the assay on HAP1 MTAP-intact and with HAP1 MTAP-deleted were 1000 to 10000 nM and at least 10000 nM, respectively.
For `Cc1ncoc1COc1ccc2c(c1)CCN(C[C@@H](O)CNC(=O)c1ccnc(NC3CCC3)c1)C2` [Compound 96, (S)-2-(cyclobutylamino)-N-(2-hydroxy-3-(6-((4-methyloxazol-5-yl)methoxy)-3,4-dihydroisoquinolin-2(1H)-yl)propyl)isonicotinamide], in that order: below 1000 nM and below 1000 nM.
Consider `O=C(NC[C@H](O)CN1CCc2c(ccc(OCc3cnco3)c2Cl)C1)c1ccnc(NC2CCC2)c1F` [Compound 326, (S)—N-(3-(5-chloro-6-(oxazol-5-ylmethoxy)-3N-dihydroisoquinolin-2(1H)-yl)-2-hydroxypropyl)-2-(cyclobutylamino)-3-fluoroisonicotinamide], for which the IC50 in the assay on HAP1 MTAP-intact and in the assay on HAP1 MTAP-deleted was at least 10000 nM throughout.
For the molecule `CC(=O)N1CCC(Nc2cc(C(=O)NC[C@H](O)CN3CCc4c(C)c(OCc5ocnc5C)cc(F)c4C3)ccn2)CC1` [Compound 642, 2-[(1-acetyl-4-piperidyl)amino]-N-[(2S)-3-[8-fluoro-5-methyl-6-[(4-methyloxazol-5-yl)methoxy]-3,4-dihydro-1H-isoquinolin-2-yl]-2-hydroxy-propyl]pyridine-4-carboxamide], the IC50 was 50 to 500 nM on PRMT5 [1], at least 10000 nM with HAP1 MTAP-intact, 500 to 5000 nM at PRMT5 [2] (read-out: No Co-factor IC50) and 50 to 500 nM on PRMT5 [3]. For the same molecule, the “SAM/MTA Ratio” value at PRMT5 [3] (setting [4]) was “A (a Ki ratio greater than or equal to 10 fold between the Ki in the presence of SAM and the Ki in the presence of MTA)”.
As for `Cc1c(OCc2ccnn2C)ccc2c1CCN(C[C@@H](O)CNC(=O)c1ccnc(NC3CCC3)c1)C2` [Compound 161, 2-(cyclobutylamino)-N-[(2S)-2-hydroxy-3-[5-methyl-6-[(2-methylpyrazol-3-yl)methoxy]-3,4-dihydro-1H-isoquinolin-2-yl]propyl]pyridine-4-carboxamide], the results for the IC50 on PRMT5 [1], at PRMT5 [2] (read-out: No Co-factor IC50) and on PRMT5 [3] were 500 to 5000 nM, at least 5000 nM and 500 to 5000 nM, respectively. Also, the “SAM/MTA Ratio” value at PRMT5 [3] (setting [4]) was “A (a Ki ratio greater than or equal to 10 fold between the Ki in the presence of SAM and the Ki in the presence of MTA)”.

In general, IC50 refers to the concentration needed to halve the response being measured.
